Patent publication EP1978972B1, “USE OF ALKYLGLUCOSIDE ESTERS AS BETA-DEFENSIN INDUCERS” (Pierre Fabre Dermo-Cosmétique, priority 2006, dated 2007)

Key:
[1] = tested on: S. aureus; experiment: Direct microbicidal activity and direct effect on adhesion of S. aureus; design: species or system Staphylococcus aureus; details: at the concentrations used
[2] = tested on: hBD-3; experiment: Immunohistochemistry of hBD-3 peptide in reconstructed gingival epithelium; assay type: cell-based, human; details: vs untreated sample, qualitative
Description: (§1) Les échantillons inclus dans la résine Tissue Tek® sont coupés à froid (température de la chambre à -25°C et la température du porte-objet à - 28°C) à l'aide d'un cryostat (Leica CM 3050s, Nussloch). Les cryocoupes d'une épaisseur de 5 µm sont récupérées sur des lames porte-objet prétraitées, puis mises à sécher environ 2 h à température ambiante et stockées à -20°C pour une utilisation ultérieure. Avant de réaliser l'immuno-marquage, les coupes sont fixées à l'acétone à -20°C pendant 10 min, séchées et conservées à -20°C. Lors d'une première étape, les coupes sont hydratées puis incubées avec les anticorps primaires dirigés contre les peptides d'intérêt dilués dans du PBS. Les anticorps primaires utilisés sont les suivants : • Goat Anti-human BD-2 (500-P161G, Peprotech Inc) dilué au 1/50^e • Rabbit Anti-human defensin-3 (AB3478, Chemicon international) dilué au 1/1000^e • Rabbit Anti-human LL37 (G-075-06, Phoenix Pharmaceuticals Inc) dilué au 1/50^e
(§2) Pour révéler le complexe Antigène-Anticorps, le kit DAKO LSAB® (DAKO Corporation) est utilisé selon les recommandations du fournisseur. La révélation est réalisée à l'aide d'un substrat de la péroxydase : la 3,3'diaminobenzidine (DAB) (DAKO Corporation). […]

[3] = tested on: hBD-3; experiment: Immunohistochemistry of hBD-3 peptide in gingival explant, systemic treatment; assay type: cell-based, human; details: 30 µg/ml, 5 h, qualitative
Description: Les explants gingivaux humains de taille variable et petite sont rincés dix fois dans du PBS sans antibiotiques puis mis en culture sur une grille afin d'éviter leur immersion totale, posés côté derme.
as §1
Pour révéler le complexe Antigène-Anticorps, le kit DAKO LSAB® (DAKO Corporation) est utilisé selon les recommandations du fournisseur. […]

[4] = tested on: hBD-2; experiment: Immunohistochemistry of hBD-2 peptide in skin explants; assay type: cell-based, human; details: skin explant, qualitative
Description: as §1, §2

What does the source list for laurate de butylglucoside [αβ-LBG brut]?
activité microbicide directe [1]: ni activité microbicide directe; direct effect on adhésion de S. aureus [1]: ni effet sur l'adhésion de S. aureus; production du peptide hBD-3 par les cellules de l'épithélium gingival reconstruit [2]: confirmer la production du peptide hBD-3; production du peptide hBD-3 dans les couches supérieures de l'épithélium gingival [3]: induction de la production du peptide hBD-3; production du peptide hBD-2 dans les couches supérieures de l'épiderme ([4]; systemic, 24 h): stimulation de la production; production du peptide hBD-2 dans les couches supérieures de l'épiderme ([4]; topical): stimulation de la production
